Experiments:
[1] = system: MIA-induced osteoarthritic pain in rats; test: Osteoarthritic (OA) pain induced by sodium monoiodoacetate (MIA), hind limb grip force; format: in vivo, rat; details: male Sprague Dawley rats, grip force 20 days after MIA injection
[2] = system: spinal nerve ligation-induced neuropathic pain in rats; test: Rat spinal nerve ligation (SNL) model of neuropathic pain, von Frey paw withdrawal threshold; format: in vivo; details: SNL dose 100 mg/kg; male Sprague Dawley rats, mechanical sensitivity (von Frey)
Description: Rat Spinal Nerve Ligation (SNL) Model of Neuropathic Pain.
A model of spinal nerve ligation-induced (SNL model) neuropathic pain as originally described by Kim and Chung (Kim, S. H. and J. M. Chung, 1992, Pain 50, 355) was used to test a compound of the present application. The male Sprague Dawley rats (Charles River Laboratories, Wilmington, Mass.), weighing 150-175 g at the time of surgery, were placed under isoflurane anesthesia and a 1.5 cm incision was made dorsal to the lumbosacral plexus. The paraspinal muscles (left side) were separated from the spinous processes, the left L5 and L6 spinal nerves isolated, and tightly ligated with 5-0 silk suture distal to the dorsal root ganglion. Care was taken to avoid ligating the L4 spinal nerve. Following spinal nerve ligation, a minimum of 7 days of recovery and no more than 3 weeks was allowed prior to the behavioral testing (mechanical sensitivity). Only rats with threshold scores ≦4.5 g were considered allodynic and utilized in pharmacological experiments.
Mechanical sensitivity was measured using calibrated von Frey filaments (Stoelting, Wood Dale, Ill.). Paw withdrawal threshold (PWT) was determined by using the Dixon's up-down method (Dixon, W. J., 1980, Ann. Rev. Pharmacol. Toxicol., 20, 441). Rats were placed into inverted individual plastic containers (20×12.5×20 cm) on top of a suspended wire mesh with a 1 cm^2 grid to provide access to the ventral side of the hind paws, and acclimated to the test chambers for 20 minutes. The von Frey filaments were presented perpendicularly to the plantar surface of the selected hind paw, and then held in this position for approximately 8 seconds with enough force to cause a slight bend in the filament. Positive responses included an abrupt withdrawal of the hind paw from the stimulus, or flinching behavior immediately following removal of the stimulus. A 50% withdrawal threshold was determined using an up-down procedure (Dixon, 1980). A percent maximal possible effect (% MPE) of testing compound was calculated according to the formula: (Log [compound-treated threshold]−Log [vehicle-treated threshold])/(Log [maximum threshold]−Log [vehicle-treated threshold])×100%, where the maximum threshold was equal to 15 g.
The animals were housed in Association for Assessment and Accreditation of Laboratory Animal Care (AAALAC) approved facilities at AbbVie Inc. in a temperature-regulated environment under a controlled 12-hour light-dark cycle, with lights on at 6:00 a.m. Food and water were available ad libitum at all times except during testing. All testing was done following procedures outlined in protocols approved by AbbVie Inc.s' Institutional Animal Care and Use Committee.

| Compound | OA MPE (%) ([1]; OA dose 10 mg/kg) | SNL MPE (%) [2] | OA MPE (%) ([1]; OA dose 30 mg/kg) |
| --- | --- | --- | --- |
| O=C1N(Cc2ncco2)CCN1c1cccc2c1cnn2-c1ccccc1F [Example 31, 1-[1-(2-fluorophenyl)-1H-indazol-4-yl]-3-(1,3-oxazol-2-ylmethyl)imidazolidin-2-one] | 89% | 94% |  |
| O=C(CN1CCN(c2cccc3c2cnn3-c2ccccc2F)C1=O)N1CCC[C@@H](F)C1 [Example 53, 1-[1-(2-fluorophenyl)-1H-indazol-4-yl]-3-{2-[(3R)-3-fluoropiperidin-1-yl]-2-oxoethyl}imidazolidin-2-one] |  | 47% | 74% |

Reference: patent publication US9783527B2, “Indazole ureas and method of use” (AbbVie Inc., priority 2014, dated 2017)
